From patent publication US20220370453A1 (Storm Therapeutics Ltd, priority 2019, published 2022)

How the values were obtained:
BCDIN3D [1] = target: T1, BCDIN3D (Homo sapiens, UniProt Q7Z5W3); experiment: BCDIN3D IC50 RFMS (RapidFire) assay with mini-helix; assay type: biochemical; conditions: mini-helix substrate 0.2 μM, SAM 6 μM, 25 nM enzyme
T1 sequence (Q7Z5W3 1-292): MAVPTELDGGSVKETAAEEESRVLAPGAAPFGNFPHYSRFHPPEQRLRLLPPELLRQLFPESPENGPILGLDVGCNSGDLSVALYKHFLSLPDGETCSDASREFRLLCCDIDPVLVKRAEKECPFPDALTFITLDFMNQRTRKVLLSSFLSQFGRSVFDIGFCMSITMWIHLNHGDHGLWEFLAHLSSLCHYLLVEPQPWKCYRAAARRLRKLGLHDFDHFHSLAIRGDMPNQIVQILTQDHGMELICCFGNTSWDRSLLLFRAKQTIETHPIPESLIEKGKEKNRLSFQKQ
Summary of the method: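 25 nM enzyme preincubated 10 min at room temperature with compound (1% DMSO) in 25 mM Tris pH 8.0, 10 mM DTT, 1 mM EDTA, 0.03% BSA. Reaction started with 0.2 μM mini-helix plus 6 μM SAM, run 1 h at 37 °C, quenched with TCA; SAH product quantified by RapidFire MS against isotopic SAH standards.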

BCDIN3D [2] = target: T1, BCDIN3D; experiment: BCDIN3D InCellPulse thermal stability assay in transfected A549 cells; assay type: cell-based; conditions: transiently transfected A549 cells, heat shock 58° C. 15 min
Summary of the method: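 A549 cells transiently expressing BCDIN3D N-terminally fused to ePL ProLabel tag, 1500 cells/well, pre-incubated 1 h at 37 °C with compound (0.6% DMSO). Heat shock 58 °C for 15 min; remaining soluble fusion detected by split β-galactosidase complementation luminescence.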

| IC50 (BCDIN3D [1]) | IC50 (BCDIN3D [2]) | Compound |
| --- | --- | --- |
| 28 nM | 56 nM | Cn1ncc2c(NCC3CC34CCC4)nc(NC[C@H](N)c3ccccc3)nc21 (stereo partly drawn) [Compound 4.104, N6-[(2R)-2-amino-2-phenyl-ethyl]-1-methyl-N4-(spiro[2.3]hexan-2-ylmethyl)pyrazolo[3,4-d]pyrimidine-4,6-diamine] |
| 112 nM | 148 nM | Cn1ncc2c(NC3CC(F)C3)nc(NC[C@H](N)c3ccccc3)nc21 (stereo partly drawn) [Compound 4.88, N6-[(2R)-2-amino-2-phenyl-ethyl]-N4-(3-fluorocyclobutyl)-1-methyl-pyrazolo[3,4-d]pyrimidine-4,6-diamine] |
| 4920 nM | 60000 nM | Cn1ncc2c(Nc3ccccc3)nc(NCC3(N)COC3)nc21 [Compound 3.29, 6-N-[(3-Aminooxetan-3-yl)methyl]-1-methyl-4-N-phenylpyrazolo[3,4-d]pyrimidine-4,6-diamine] |
| 8100 nM | 9560 nM | [2H]C([2H])([2H])n1ncc2c(NC)nc(NCC(N)c3ccccc3)nc21 (stereo not drawn) [Compound 4.38, 6-N-(2-amino-2-phenylethyl)-4-N-methyl-1-(trideuteriomethyl)pyrazolo[3,4-d]pyrimidine-4,6-diamine] |
| 115 nM | 267 nM | Cn1ncc2c(Nc3ccc(OC(F)(F)F)cc3)nc(NCC3(N)CCCC3)nc21 [Compound 3.23, 6-N-[(1-aminocyclopentyl)methyl]-1-methyl-4-N-[4-(trifluoromethoxy)phenyl]pyrazolo[3,4-d]pyrimidine-4,6-diamine] |
| 84.3 nM | 176 nM | Cn1ncc2c(NC3CC(C)(F)C3)nc(NC[C@H](N)c3ccccc3)nc21 (stereo partly drawn) [Compound 4.97, N6-[(2R)-2-amino-2-phenyl-ethyl]-N4-(3-fluoro-3-methyl-cyclobutyl)-1-methyl-pyrazolo[3,4-d]pyrimidine-4,6-diamine] |
| 17 nM | 34 nM | Cn1ncc2c(NC3CC(C(F)(F)F)C3)nc(NC[C@H](N)c3ccccc3)nc21 (stereo partly drawn) [Compound 4.109, N6-[(2R)-2-amino-2-phenyl-ethyl]-1-methyl-N4-[3-(trifluoromethyl)cyclobutyl]pyrazolo[3,4-d]pyrimidine-4,6-diamine] |
| 130 nM | 150 nM | Cn1ncc2c(NC(C)(C)C)nc(NCC(N)c3ccc(C4CC4)cc3)nc21 (stereo not drawn) [Compound 5.33, N6-[2-amino-2-(4-cyclopropylphenyl)ethyl]-N4-tert-butyl-1-methyl-1H-pyrazolo[3,4-d]pyrimidine-4,6-diamine] |
| 3390 nM | 5570 nM | Cn1ncc2c(NC(C)(C)C)nc(NCC(N)c3ccncc3)nc21 (stereo not drawn) [Compound 5.26, N6-[2-amino-2-(4-pyridyl)ethyl]-N4-tert-butyl-1-methyl-pyrazolo[3,4-d]pyrimidine-4,6-diamine] |
| 350 nM | 2130 nM | Cn1ncc2c(Nc3ccc(F)c(F)c3)nc(NCC3(N)CC3)nc21 [Compound 2.39, 6-N-[(1-aminocyclopropyl)methyl]-4-N-(3,4-difluorophenyl)-1-methylpyrazolo[3,4-d]pyrimidine-4,6-diamine] |
| 2560 nM | 4200 nM | Cn1ncc2c(NC3CC3)nc(NCC(N)c3ccccc3)nc21 (stereo not drawn) [Compound 4.43, 6-N-(2-amino-2-phenylethyl)-4-N-cyclopropyl-1-methylpyrazolo[3,4-d]pyrimidine-4,6-diamine] |
| 136 nM | 232 nM | C[C@H](Nc1nc(NC[C@H](N)c2ccccc2)nc2c1cnn2C)C(F)(F)F [Compound 4.76, N6-[(2R)-2-amino-2-phenyl-ethyl]-1-methyl-N4-[(1S)-2,2,2-trifluoro-1-methyl-ethyl]pyrazolo[3,4-d]pyrimidine-4,6-diamine] |
| 201 nM | 503 nM | Cn1ncc2c(Nc3ccc(OC(F)F)cc3)nc(NCC3(N)CCC3)nc21 [Compound 3.09, N6-[(1-aminocyclobutyl)methyl]-N4-[4-(difluoromethoxy)phenyl]-1-methyl-pyrazolo[3,4-d]pyrimidine-4,6-diamine] |
| 665 nM | 1450 nM | Cc1ccc(CNc2nc(NC[C@@H](C)N)nc3c2cnn3C)cc1Cl [Compound 3.04, 6-N-[(2R)-2-aminopropyl]-4-N-[(3-chloro-4-methylphenyl)methyl]-1-methylpyrazolo[3,4-d]pyrimidine-4,6-diamine] |
| 4280 nM | 5670 nM | CCn1ncc2c(NC(C)C)nc(NCC(N)c3ccccc3)nc21 (stereo not drawn) [Compound 4.02, 6-N-(2-Amino-2-phenylethyl)-1-ethyl-4-N-propan-2-ylpyrazolo[3,4-d]pyrimidine-4,6-diamine] |
| 501 nM | 1130 nM | CC(C)Nc1nc(NCC(N)c2ccccc2)nc2c1cnn2C (stereo not drawn) [Compound 4.46, 6-N-(2-amino-2-phenylethyl)-1-methyl-4-N-propan-2-ylpyrazolo[3,4-d]pyrimidine-4,6-diamine] |
| 179 nM | 168 nM | Cn1ncc2c(NC34CC(F)(C3)C4)nc(NC[C@H](N)c3ccccc3)nc21 [Compound 4.67, N6-[(2R)-2-amino-2-phenyl-ethyl]-N4-(3-fluoro-1-bicyclo[1.1.1]pentanyl)-1-methyl-pyrazolo[3,4-d]pyrimidine-4,6-diamine] |
| 21.7 nM | 384 nM | Cn1ncc2c(Nc3ccc(C(F)(F)F)nc3)nc(NCC(C)(N)c3ccccc3)nc21 (stereo not drawn) [Compound 4.26, 6-N-(2-amino-2-phenylpropyl)-1-methyl-4-N-[6-(trifluoromethyl)pyridin-3-yl]pyrazolo[3,4-d]pyrimidine-4,6-diamine] |
| 6450 nM | 2720 nM | Cn1ncc2c(NC(C3CC3)C3CC3)nc(NCC(N)c3ccccc3)nc21 (stereo not drawn) [Compound 4.57, N6-(2-amino-2-phenyl-ethyl)-N4-(dicyclopropylmethyl)-1-methyl-pyrazolo[3,4-d]pyrimidine-4,6-diamine] |
| 95.8 nM | 140 nM | COc1ccc(Nc2nc(NC[C@H](N)c3ccccc3)nc3c2cnn3C)cc1 [Compound 4.32, N6-[(2R)-2-amino-2-phenyl-ethyl]-N4-(4-methoxyphenyl)-1-methyl-pyrazolo[3,4-d]pyrimidine-4,6-diamine] |
| 202 nM | 949 nM | Cn1ncc2c(NC34CC(C#N)(C3)C4)nc(NCC(N)c3ccccc3)nc21 (stereo not drawn) [Compound 4.64, 3-[[6-[(2-amino-2-phenylethyl)amino]-1-methylpyrazolo[3,4-d]pyrimidin-4-yl]amino]bicyclo[1.1.1]pentane-1-carbonitrile] |
| 316 nM | 414 nM | Cn1ncc2c(NCC(F)(F)F)nc(NC[C@H](N)c3ccccc3)nc21 [Compound 4.45, N6-[(2R)-2-amino-2-phenyl-ethyl]-1-methyl-N4-(2,2,2-trifluoroethyl)pyrazolo[3,4-d]pyrimidine-4,6-diamine] |
| 344 nM | 2980 nM | [2H]C([2H])([2H])n1ncc2c(Nc3ccc(C(F)(F)F)nc3)nc(NCC3(N)CC3)nc21 [Compound 2.50, N6-[(1-aminocyclopropyl)methyl]-1-(trideuteriomethyl)-N4-[6-(trifluoromethyl)-3-pyridyl]pyrazolo[3,4-d]pyrimidine-4,6-diamine] |
| 452 nM | 959 nM | Cn1ncc2c(Nc3cc(F)cc(Cl)c3)nc(NCC3(N)CC3)nc21 [Compound 2.16, 6-N-[(1-aminocyclopropyl)methyl]-4-N-(3-chloro-5-fluorophenyl)-1-methylpyrazolo[3,4-d]pyrimidine-4,6-diamine] |
| 230 nM | 616 nM | Cn1ncc2c(NC34CC(F)(C3)C4)nc(NCC(N)c3ccccc3)nc21 (stereo not drawn) [Compound 4.65, N6-(2-amino-2-phenylethyl)-N4-{3-fluorobicyclo[1.1.1]pentan-1-yl}-1-methyl-1H-pyrazolo[3,4-d]pyrimidine-4,6-diamine] |
| 343 nM | 461 nM | COC1CC(Nc2nc(NC[C@H](N)c3ccccc3)nc3c2cnn3C)C1 (stereo partly drawn) [Compound 4.92, N6-[(2R)-2-amino-2-phenyl-ethyl]-N4-(3-methoxycyclobutyl)-1-methyl-pyrazolo[3,4-d]pyrimidine-4,6-diamine] |
| 25.6 nM | 40.8 nM | Cn1ncc2c(NC3CC4(C3)CC(F)(F)C4)nc(NCC(N)c3ccccc3)nc21 (stereo not drawn) [Compound 4.82, N6-(2-amino-2-phenyl-ethyl)-N4-(2,2-difluorospiro[3.3]heptan-6-yl)-1-methyl-pyrazolo[3,4-d]pyrimidine-4,6-diamine] |
| 3390 nM | 6060 nM | COCCNc1nc(NCC(N)c2ccccc2)nc2c1cnn2C (stereo not drawn) [Compound 4.49, 6-N-(2-amino-2-phenylethyl)-4-N-(2-methoxyethyl)-1-methylpyrazolo[3,4-d]pyrimidine-4,6-diamine] |
| 1800 nM | 2260 nM | Cn1ncc2c(Nc3ccc(C#N)cc3)nc(NCC3(N)CCCC3)nc21 [Compound 3.22, 4-[[6-[(1-aminocyclopentyl)methylamino]-1-methylpyrazolo[3,4-d]pyrimidin-4-yl]amino]benzonitrile] |
| 2100 nM | 6530 nM | Cn1ncc2c(Nc3ccc(Cl)cn3)nc(NCC3(N)CC3)nc21 [Compound 2.46, 6-N-[(1-aminocyclopropyl)methyl]-4-N-(5-chloropyridin-2-yl)-1-methylpyrazolo[3,4-d]pyrimidine-4,6-diamine] |
